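A five-concentration, 48-hour dose response in 96-well plates underlies each endpoint, interpolated linearly between surrounding concentrations. Abbreviation: GI50, concentration required for 50% inhibition of growth.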 Active and inactive are the calls of the source. Cut-off read from the data, not from the text of the source: active = GI50 up to about 1.1 µM and inactive = higher.
What was measured:
Experiment in all cases: NCI-60 cell line screen, 48 h
786-0 = system: 786-0
A498 = system: A498
A549 = system: A549
ACHN = system: ACHN
CAKI-1 = system: CAKI-1
CCRF-CEM = system: CCRF-CEM
COLO 205 = system: COLO 205
DLD-1 = system: DLD-1
DMS-114 = system: DMS-114
DMS-273 = system: DMS-273
EKVX = system: EKVX
HCC 2998 = system: HCC 2998
HCT-116 = system: HCT-116
HCT-15 = system: HCT-15
HL-60 = system: HL-60
HOP-18 = system: HOP-18
HOP-92 = system: HOP-92
HT-29 = system: HT-29
IGROV-1 = system: IGROV-1
K562 = system: K562
KM-20L2 = system: KM-20L2
KM12 = system: KM12
LOX IMVI = system: LOX IMVI
LXFL 529 = system: LXFL 529
M14 = system: M14
M19-MEL = system: M19-MEL
MOLT-4 = system: MOLT-4
Malme-3M = system: Malme-3M
NCI-H226 = system: NCI-H226
NCI-H23 = system: NCI-H23
NCI-H460 = system: NCI-H460
NCI-H522 = system: NCI-H522
OVCAR-3 = system: OVCAR-3
OVCAR-4 = system: OVCAR-4
OVCAR-5 = system: OVCAR-5
OVCAR-8 = system: OVCAR-8
RPMI-8226 = system: RPMI-8226
RXF 393 = system: RXF 393
SF-268 = system: SF-268
SF-295 = system: SF-295
SF-539 = system: SF-539
SK-MEL-28 = system: SK-MEL-28
SK-MEL-2 = system: SK-MEL-2
SK-MEL-5 = system: SK-MEL-5
SK-OV-3 = system: SK-OV-3
SN12C = system: SN12C
SNB-19 = system: SNB-19
SNB-75 = system: SNB-75
SNB-78 = system: SNB-78
SW-620 = system: SW-620
TK-10 = system: TK-10
U-251 = system: U-251
UACC-257 = system: UACC-257
UACC-62 = system: UACC-62
UO-31 = system: UO-31
HOP-62 = system: HOP-62
SR = system: SR

## COc1cc2c3c(c1OC)-c1ccccc1C(C(OC(C)=O)c1ccccc1)C3N(C)CC2 (centres undefined)
786-0
  GI50: 74.5 µM (inactive)
A498
  GI50: 31.7 µM (inactive)
A549
  GI50: 32.8 µM (inactive)
ACHN
  GI50: 14.8 µM (inactive)
CAKI-1
  GI50: 63 µM (inactive)
CCRF-CEM
  GI50: 25.1 µM (inactive)
COLO 205
  GI50: 30.3 µM (inactive)
DLD-1
  GI50: 5.97 µM (inactive)
DMS-114
  GI50: 28.4 µM (inactive)
DMS-273
  GI50: 19.3 µM (inactive)
EKVX
  GI50: > 100 µM (inactive)
HCC 2998
  GI50: 6.81 µM (inactive)
HCT-116
  GI50: 34.5 µM (inactive)
HCT-15
  GI50: 27.7 µM
HL-60
  GI50: 5.4 µM (inactive)
HOP-18
  GI50: > 100 µM (inactive)
HOP-92
  GI50: 21 µM (inactive)
HT-29
  GI50: 38.3 µM (inactive)
IGROV-1
  GI50: > 100 µM (inactive)
K562
  GI50: > 10 µM (inactive)
KM-20L2
  GI50: 27.1 µM (inactive)
KM12
  GI50: 25.7 µM (inactive)
LOX IMVI
  GI50: 44.9 µM (inactive)
LXFL 529
  GI50: 19.7 µM (inactive)
M14
  GI50: 51.2 µM (inactive)
M19-MEL
  GI50: 28.8 µM (inactive)
MOLT-4
  GI50: 7.59 µM (inactive)
Malme-3M
  GI50: 33.2 µM (inactive)
NCI-H226
  GI50: 47.2 µM (inactive)
NCI-H23
  GI50: 38.7 µM (inactive)
NCI-H460
  GI50: 30.5 µM (inactive)
NCI-H522
  GI50: 49.2 µM (inactive)
OVCAR-3
  GI50: 43.4 µM (inactive)
OVCAR-4
  GI50: 9.16 µM (inactive)
OVCAR-5
  GI50: > 100 µM (inactive)
OVCAR-8
  GI50: 34.8 µM (inactive)
RPMI-8226
  GI50: 5.55 µM (inactive)
RXF 393
  GI50: 70.6 µM (inactive)
SF-268
  GI50: 93.8 µM (inactive)
SF-295
  GI50: > 100 µM (inactive)
SF-539
  GI50: > 100 µM (inactive)
SK-MEL-28
  GI50: 31.8 µM (inactive)
SK-MEL-2
  GI50: 17.2 µM (inactive)
SK-MEL-5
  GI50: 18.1 µM (inactive)
SK-OV-3
  GI50: > 100 µM (inactive)
SN12C
  GI50: 34.7 µM (inactive)
SNB-19
  GI50: 48.4 µM (inactive)
SNB-75
  GI50: 31.9 µM (inactive)
SNB-78
  GI50: 32.7 µM (inactive)
SW-620
  GI50: 65.3 µM (inactive)
TK-10
  GI50: > 100 µM (inactive)
U-251
  GI50: 34 µM (inactive)
UACC-257
  GI50: 58.5 µM (inactive)
UACC-62
  GI50: 34 µM (inactive)
UO-31
  GI50: 57.1 µM (inactive)

## COc1ccc(/C=N/N=C(\N)NO)c(OC)c1C
786-0
  GI50: 16.1 µM (inactive)
A498
  GI50: 25.4 µM (inactive)
A549
  GI50: 10.9 µM (inactive)
ACHN
  GI50: 11.1 µM (inactive)
CAKI-1
  GI50: 8.49 µM (inactive)
CCRF-CEM
  GI50: 29.9 µM (inactive)
COLO 205
  GI50: 10.2 µM (inactive)
DLD-1
  GI50: 29 µM (inactive)
DMS-114
  GI50: 13.2 µM (inactive)
EKVX
  GI50: 4.56 µM (inactive)
HCC 2998
  GI50: 7.08 µM (inactive)
HCT-116
  GI50: 24.5 µM (inactive)
HCT-15
  GI50: 9.14 µM
HOP-18
  GI50: 5.24 µM (inactive)
HOP-62
  GI50: 7.19 µM (inactive)
HOP-92
  GI50: 19.8 µM (inactive)
HT-29
  GI50: 12.9 µM (inactive)
IGROV-1
  GI50: 56.4 µM (inactive)
K562
  GI50: 10.1 µM (inactive)
KM12
  GI50: 29.2 µM (inactive)
LOX IMVI
  GI50: 4.81 µM (inactive)
LXFL 529
  GI50: 3.62 µM (inactive)
MOLT-4
  GI50: 22.2 µM (inactive)
Malme-3M
  GI50: 16.3 µM (inactive)
NCI-H226
  GI50: 15.2 µM (inactive)
NCI-H23
  GI50: 19.5 µM (inactive)
NCI-H460
  GI50: 15.6 µM (inactive)
NCI-H522
  GI50: 12.5 µM (inactive)
OVCAR-3
  GI50: 7.96 µM (inactive)
OVCAR-4
  GI50: 22.9 µM (inactive)
OVCAR-5
  GI50: 2.47 µM (inactive)
OVCAR-8
  GI50: 20.2 µM (inactive)
RPMI-8226
  GI50: 23.7 µM (inactive)
RXF 393
  GI50: 12.2 µM (inactive)
SF-268
  GI50: 15.4 µM (inactive)
SF-295
  GI50: 21.1 µM (inactive)
SF-539
  GI50: 19.2 µM (inactive)
SK-MEL-28
  GI50: 5.57 µM (inactive)
SK-MEL-2
  GI50: 22.3 µM (inactive)
SK-OV-3
  GI50: 34.4 µM (inactive)
SN12C
  GI50: 26 µM (inactive)
SNB-19
  GI50: 65.2 µM (inactive)
SNB-78
  GI50: 20.5 µM (inactive)
SR
  GI50: 28.2 µM (inactive)
SW-620
  GI50: 22.8 µM (inactive)
U-251
  GI50: 45.1 µM (inactive)
UACC-257
  GI50: 22.2 µM (inactive)
UACC-62
  GI50: 16.3 µM (inactive)
UO-31
  GI50: 10.2 µM (inactive)

From ChEMBL document CHEMBL1201862, “PubChem BioAssay data set” (2004)
